# Assay results published in patent US11725027B2, “Hypersensitive response elicitor-derived peptides and use thereof” (priority 2016, dated 2023).
# Like-named read-outs stand apart in the source and are kept apart here. Marks after values point to notes of the source that are not given here. No end group written: not given here.
# Tests used:
# [1] = 50° C.; for stability in buffer solutions: 50 mM buffers
# Method: Briefly, the stability and resistance to chemical degradation of peptides can be assessed as follows using peptide samples having an initial purity of at least about 80%, at least about 82%, at least about 84%, at least about 86%, at least about 88%, at least about 90%, at least about 92%, at least about 94%, at least about 96%, or at least about 98%. For water stability, the peptide is dissolved directly in de-ionized water. For chemical degradation tests, the peptide is dissolved in an aqueous solution containing 50 mM pH buffer and 0.25% Proxel GXL. Exemplary pH buffers include, without limitation: (i) Citrate pH 5.6; (ii) MES pH 6.0; (iii) MOPS pH 6.5; (iv) imidazole pH 7.5; (v) Citrate pH 7.2; (vi) EDDS, pH 7.3; (vii) EDTA pH 8.0; (viii) sodium phosphate pH 8.0; or (ix) TES pH 8.0. Peptides are first dissolved in the aqueous solution at a concentration of 0.5 mg/ml. The samples are incubated at 50° C. to allow for accelerated degradation. An initial sample of the peptide is removed, diluted 10× with water, and analyzed by reverse-phase HPLC. Briefly, 20 μl of the sample is injected into the solvent flow of an HPLC instrument and analyzed on a C18 HPLC column (YMC ProPack C18, YMC, Japan, or C18 Stablebond, Agilent Technologies, USA) using either a triethylamine phosphate in water/acetonitrile gradient or a 0.1% TFA in water/0.1% TFA in acetonitrile gradient to separate different peptide species. Eluting peptides are monitored by UV absorbance at 218 nm and quantified based on the area under the peak. The area under the peak for the initial peptide sample is treated as the standard for relative quantification in subsequent runs. At regular intervals (e.g., 1, 3, 7, 10, and 14 days), each peptide sample is surveyed and analyzed by HPLC as described above.
# Stability against chemical degradation was assessed in various pH buffers by creating 0.2% AI solutions of pure, chemically synthesized peptide in deionized water, 0.25% weight to volume of Proxel® GXL (biocide), and 50 millimolar (mM) of nine buffers (separately) as follows: Citrate, pH 5.6, MES pH 6.0, MOPS pH 6.5, Citrate pH 7.2, EDDS pH 7.3, imidazole pH 7.5, EDTA pH 8, Phosphate pH 8, and TES pH 8.
# corn = test: Drought resistance in corn (greenhouse, spray); format: in vivo; details: corn under drought
# Method: (§1) The effectiveness of peptide treatment in reducing drought stress was assessed in corn and soy. 3.5 inch pots were filled with Sunshine #1 soil (SunGro Horticulture), fertilized with a 20-10-20 mixture. The soil was soaked and drained overnight. Seeds (either corn or soy, manually inspected to ensure uniform seed size) were planted at a depth of 1 inch for germination. Plants were grown in a greenhouse under 16 hour light days at >70° F. and 8 hour dark nights at >65° F. Prior to drought conditions, the plants were well-watered.
# When the plants reached the V1 stage, plants were culled to achieve a uniform height (abnormally large and small plants were removed). Plants were then randomly assigned to control (spray without peptide) or treatment (spray with peptide) groups and heights were measured. Peptide was made up in a solution of 0.2 ug/ml or 2 ug/ml in distilled water+0.01% Tween-20, and applied as a fine mist from a spray bottle until the solution drips from the leaves. After the peptide solutions were dried, the plants were again randomized in a randomized complete block design. Drought stress was initiated after the peptide treatment. This was caused by maintaining the water level at 25-50% of the maximum capacity for water (capacity was decided as the weight of the pot filled with saturated soil minus the weight of the filled pot prior to adding water).
# (§2) The drought test phase ended after 2-3 weeks. At that time, the plant height was again measured and the growth rate was calculated as the difference between this and the previously-recorded height. The above-ground part portions of the plants were harvested and weighed. The above-ground portion was also dried in an oven at 70° C. for 72 hours and a dry weight was obtained. All calculations were compared with matched untreated control plants.
# [2] = system: Nicotiana tabacum cultivar xanthi plants; test: Hypersensitive Response (HR) induction in tobacco leaves; format: in vivo; parameters: key to HR: Plants are considered HR-positive (“HR+”) if they exhibit wide-spread macroscopic cell death visible to the naked eye, accompanied by wilting and browning of the affected tissue within 48 hours; Plants are considered HR-negative (“HR−”) if they exhibit no discernible wilting or tissue death observable by naked eye; details: tobacco leaf infused with 500, 250, 125, 62.5, 31.25 μg/ml peptide solutions, scored over 48 hours
# From the text: A property of a peptide to elicit a hypersensitive response, or not, upon infiltration or application of the peptide to plant tissues can be measured by applying the peptide in dry powder form or in solution form to a plant, particularly though not exclusively a plant leaf.
# The minimal eliciting sequence derived from was developed based on the sequence of the hrex gene from Xanthomonas campestris pv. pelargonii. A number of truncated and mutated sequences were synthesized and tested for Hypersensitive Response induction (results in Table 4). HR in tobacco was tested as described in Wei, Science 257:85-88 (1992), which is hereby incorporated by reference in its entirety. Briefly, peptides were dissolved at a concentration of 500 μg/ml in aqueous solution. Four serial dilutions were performed with an equal volume of water, yielding peptide samples at 500, 250, 125, 62.5, 31.25 μg/ml peptide solutions. Nicotiana tabacum cultivar xanthi plants were used at 5-7 weeks old (preflowering). Leaves were lightly punctured with a toothpick in a middle leaf panel. Peptide solutions were then infused via needle-less syringe into the wound, filling the panel. Each peptide sample was infused into a leaf of 2 different plants. The leaves were observed and scored over the next 48 hours for withering and browning, lesions typical of programmed cell death. These studies had […] main goals: (1) determine the minimal sequence sufficient for HR elicitation (2) increase the solution stability of the peptides; (3) make disruptive mutations to verify the residues which are most important for HR elicitation; (4) make conservative mutations to identify the degree of specificity for particular amino acids.
# soy = test: Drought resistance in soy (greenhouse, spray); format: in vivo; details: soy under cyclic drought
# Method: as §1, with “in” for “in corn and”, “Seeds (soy,” for “Seeds (either corn or soy,”, “of half” for “of 1”
# When the plants reached the growth stage when first trifoliate expanded, plants were culled to achieve a uniform height (abnormally large and small plants were removed). Plants were then randomly assigned to control (spray without peptide) or treatment (spray with peptide) groups and heights were measured. Peptide was made up in a solution of 0.2 ug/ml or 2 ug/ml in distilled water+0.04% Tween-20, and applied as a fine mist from a spray bottle until the solution drips from the leaves. After the peptide solutions were dried, the plants were again randomized in a randomized complete block design. Cyclic drought stress was initiated after the peptide treatment. Plants were subjected to at least three drought cycles of drought stress (3-5 days of withholding water and 1 day irrigated with saturating amount of water) before harvesting.
# as §2, with “weighed to obtain fresh weight.” for “weighed.”, “to obtain” for “and a”, “weight.” for “weight was obtained.”
# [3] = Solution (formulation) stability at 50° C. (HPLC); format: physicochemical; details: 0.25% Proxel GXL
# Method: Peptides solutions were analyzed by HPLC for % loss of the peptide signal over time during incubation at 50° C., relative to the time 0 sample. Peptides were analyzed until the remaining peptide concentration decreased to 80% of original (20% degradation).
# [4] = Stability of material bulked with maltodextrin and buffer at room temperature; format: physicochemical; details: bulked with maltodextrin and phosphate buffer (pH 8.0) or citrate buffer (pH 7.2), 48 hours
# Method: Samples of material P5, P5-21, and P5-25 bulked with maltodextrin and either phosphate buffer (pH 8.0) or citrate buffer (pH 7.2) were tested for stability at room temperature for 48 hours.
# [5] = system: tobacco mosaic virus (TMV); test: Induction of resistance to tobacco mosaic virus in tobacco; format: in vivo; details: % decline in TMV lesions vs UTC, spray 20 ug/ml; for Effectiveness Covered (%): covered leaf (systemic response); for Effectiveness Uncovered (%): uncovered leaf (local response)
# Method: Peptides were tested for the induction of resistance to tobacco mosaic virus (TMV) in tobacco. Briefly, three tobacco plants at 6-8 weeks old were selected per group (samples and controls). The bottom-most leaf of the plant was covered and the plant was sprayed with a solution of water (untreated control—UTC), peptide, or Proact (positive control). The spray was applied until the leaves were fully wetted, indicated by liquid dripping from the leaves. The plants were then allowed to dry and the leaf covering was removed.
# Three days post-treatment, the previously-covered leaf and a leaf on the opposite side of the plant were then lightly dusted with diatomaceous earth and 20 ul of a 1.7 ug/ml solution of purified tobacco mosaic virus was applied. The TMV solution was then spread across the leaf surface by lightly rubbing solution and the diatomaceous earth across the surface of the leaves. Two minutes after inoculation, the diatomaceous earth was rinsed off the leaves with water. 3 days after TMV inoculation, the leaves were scored based on the number of TMV lesions observed. The leaf was also scored for signs of the hypersensitive response, including yellowing and wilting of the affected leaves.
# Effectiveness described in Table 6 refers to the % decline in TMV lesions on treated vs UTC plants. A reduction of TMV on covered leaves indicates a systemic immune response in the plant while reduction on uncovered leaves indicates a local response. Asterisks indicate that the P-value derived from a T-test was <0.05.
# soybean cyst nematodes = test: Seed coating with peptides compared with chemical nematode agents in soy; format: in vivo, soy (Sheyenne variety)
# Method: Additional experiments will be performed to examine the effectiveness of peptide treatment in suppressing the growth of soybean cyst nematodes using one or more of the other peptides in Tables 1 and 2, including, without limitation, P5-21 and P5-25. See Example 8 below.
# The effectiveness of peptides was tested in soy (Sheyenne variety) and compared with current anti-nematode chemicals. Briefly, soy seeds were commercially coated with peptide at rates of 10, 30, or 90 ug peptide per seed or with chemical nematicides Avicta Complete, Clariva Complete, Poncho/Votivo, or Velum total. 3 soy seeds were planted in a mixture of topsoil and sand (pasteurized) in a 10 cm diameter pot and were inoculated with 1500 eggs per pot at planting. 10 replicate pots were used per experimental condition. After plants emerged from the soil, the plants were thinned to one plant per pot. Plants were harvested about 45 days after planting. The following measures were taken: (1) Fresh shoot and root weights; (2) Root condition graded 0-10 for the presence of disease; (3) Nematode cysts per plant; (4) Nematode eggs per plant; and optionally (5) Male nematodes. The following values were calculated: eggs per gram of root, cysts per gram of root, and eggs per cyst.
# [6] = EDTA buffer pH 8.0, 50 mM, after 14 days
sequence,measurement,setting,value
LDLLLAFIAAALEEEEEE [Peptide P5-9],stability in buffer solutions,[1],better stability compared with P5
same,peptide remaining,"[1]; citrate pH 7.2, 50 mM, after 14 days",above 80%
same,peptide remaining,"[1]; phosphate pH 8.0, 50 mM, after 14 days",above 80%
NQGISEKQQLDLLLAFIAAALQQ [Peptide P5-76],Dry Weight Increase (%),corn; 0.2 ug/ml,5.33* %
same,Fresh Weight Increase (%),corn; 0.2 ug/ml,2.00%
same,HR,[2],Weak+
NQGISEKQQLDLLLMFIMMMLQQ [Peptide P5-75],Dry Weight Increase (%),soy; 0.2 ug/ml,3.73%
same,Fresh Weight Increase (%),soy; 0.2 ug/ml,8.78** %
same,Dry Weight Increase (%),soy; 2.0 ug/ml,4.37%
same,Fresh Weight Increase (%),soy; 2.0 ug/ml,8.55** %
same,HR,[2],Strong+
SAGSEQQEDLLLMFIMMMLQQ [Peptide P5-35],Dry Weight Increase (%),corn; 2.0 ug/ml,−6.57* %
same,Fresh Weight Increase (%),corn; 2.0 ug/ml,−6.05* %
same,HR,[2],Weak+
SAGSEQQLDLLLMFIMMMLQQ [Peptide P5],Time before 20% degradation,"[3]; 50 mM phosphate pH 8.0, 30% IPA, 5 mM DTPA, 0.09% AI",21 days
same,degradation (more than 5% loss),[4],No significant degradation
same,stability in buffer solutions,[1],generally poor stability
same,peptide remaining,[1]; [6],about 40%
SEEEEQLDQLLLAFIAAALQQ [Peptide P5-25],"drought resistance, experimental results",corn,not statistically significant
same,Effectiveness Covered (%),[5],93* %
same,Effectiveness Uncovered (%),[5],91* %
same,Time before 20% degradation,"[3]; 50 mM citrate pH 7.2, 0.09% AI",53 days
same,HR,[2],-
same,reduction in cysts per gram root,soybean cyst nematodes; 10 ug peptide per seed,92%
same,reduction in eggs per gram root,soybean cyst nematodes; 10 ug peptide per seed,94%
same,reduction in cysts per gram root,soybean cyst nematodes; 30 ug peptide per seed,82%
same,reduction in eggs per gram root,soybean cyst nematodes; 30 ug peptide per seed,85%
same,reduction in cysts per gram root,soybean cyst nematodes; 90 ug peptide per seed,91%
same,reduction in eggs per gram root,soybean cyst nematodes; 90 ug peptide per seed,93%
same,degradation (more than 5% loss),[4],No significant degradation
SEEEQLDLLLMFIMMMLQEE [Peptide P5-33],Dry Weight Increase (%),soy; 2.0 ug/ml,5.02** %
same,Fresh Weight Increase (%),soy; 2.0 ug/ml,4.10%
same,HR,[2],+
SEEQLDQLLLAFIAAALQEE [Peptide P5-27],Dry Weight Increase (%),soy; 2.0 ug/ml,2.04%
same,Fresh Weight Increase (%),soy; 2.0 ug/ml,4.07* %
same,Time before 20% degradation,"[3]; 50 mM imidazole pH 7.5, 50% IPA, 0.09% AI",50 days
same,HR,[2],-
SEEQLDQLLLMFIMMMLQQEE [Peptide P5-46],Dry Weight Increase (%),corn; 2.0 ug/ml,3.71%
same,Fresh Weight Increase (%),corn; 2.0 ug/ml,9.05** %
same,Effectiveness Covered (%),[5],74* %
same,Effectiveness Uncovered (%),[5],85* %
same,HR,[2],+
SEEQLELLLAFIAAALQQEE [Peptide P5-21],Time before 20% degradation,"[3]; 50 mM citrate pH 7.2, 20% IPA, 0.09% AI",41 days
same,degradation (more than 5% loss),[4],No significant degradation
same,peptide remaining,[1]; [6],around 80%
same,peptide remaining (stability),"[1]; all buffers pH>7.0 except EDTA, 50 mM, after 14 days",> 90%
